Experimental data: PMC7450057, “Enhancing intracellular accumulation and target engagement of PROTACs with reversible covalent chemistry” (Nature Communications, 2020)
pIC50: −log10 of the molar value. Values joined by “and” are separate entries in the source; they are usually repeats but may differ in a detail not shown here. Identical values can stand only once. Like-named read-outs stand apart in the source and are kept apart here.

Columns and labels:
[1] = Permeability by lipid-PAMPA method (Pharmaron); type: in vitro ADME; details: PAMPA
Protocol: The permeability of compounds was measured using Lipid-PAMPA method by Pharmaron. Preparation of stock solutions: testosterone and methotrexate were used as control compounds in this assay. The stock solutions of positive controls were prepared in DMSO or acetonitrile at the concentration of 10 mM. Prepare a stock solution of compounds in DMSO at the concentration of 10 mM, and further dilute with PBS (pH 7.4). […]
Assay procedures: prepare a 1.8% solution (w/v) of lecithin in dodecane, and sonicate the mixture to ensure a complete dissolution. Carefully pipette 5 μL of the lecithin/dodecane mixture into each acceptor plate well (top compartment), avoiding pipette tip contact with the membrane. Immediately after the application of the artificial membrane (within 10 min), add 300 μL of PBS (pH 7.4) solution to each well of the acceptor plate. Add 300 μL of drug-containing solutions to each well of the donor plate (bottom compartment) in triplicate. Slowly and carefully place the acceptor plate into the donor plate, making sure the underside of the membrane is in contact with the drug-containing solutions in all wells. Replace the plate lid and incubate at 25 °C, 60 rpm for 16 h. After incubation, aliquots of 50 μL from each well of acceptor and donor plate are transferred into a 96-well plate. Add 450 μL of methanol (containing IS: 100 nM Alprazolam, 200 nM Caffeine, 100 nM Tolbutamide) into each well. Cover with plate lid. Vortex at 750 rpm for 100 s. Samples were centrifuged at 3220 × g for 20 min. Determine the compound concentrations by LC/MS/MS. The effective permeability (Pe), in units of centimeter per second, can be calculated using the following equation: LogPe=LogC×−Ln1−drugacceptor/drugequilibrium

NanoLuc-CRBN fusion = molecular target: T1, NanoLuc-CRBN fusion (Homo sapiens, UniProt Q96SW2); assay: NanoBRET CRBN in-cell target engagement assay; type: cell-based; details: for NanoBRET(%): Figure 3b
T1 construct: host or cells: HEK 293T/17
T1 sequence (Q96SW2 whole entry, the tested form may be a part): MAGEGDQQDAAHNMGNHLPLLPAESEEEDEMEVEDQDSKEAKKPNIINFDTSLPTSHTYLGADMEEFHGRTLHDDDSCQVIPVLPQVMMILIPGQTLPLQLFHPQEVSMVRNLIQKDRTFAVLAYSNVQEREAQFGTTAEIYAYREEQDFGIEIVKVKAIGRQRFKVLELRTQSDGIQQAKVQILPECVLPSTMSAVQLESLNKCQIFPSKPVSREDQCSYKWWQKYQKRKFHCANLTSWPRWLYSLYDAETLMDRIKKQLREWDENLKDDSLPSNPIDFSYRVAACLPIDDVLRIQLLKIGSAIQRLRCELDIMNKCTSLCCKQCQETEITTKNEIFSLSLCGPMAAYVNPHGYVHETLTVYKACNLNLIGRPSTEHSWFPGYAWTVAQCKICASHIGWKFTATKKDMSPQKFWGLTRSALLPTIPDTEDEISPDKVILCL
T1 sequence (Q16531 whole entry partner, the tested form may be a part): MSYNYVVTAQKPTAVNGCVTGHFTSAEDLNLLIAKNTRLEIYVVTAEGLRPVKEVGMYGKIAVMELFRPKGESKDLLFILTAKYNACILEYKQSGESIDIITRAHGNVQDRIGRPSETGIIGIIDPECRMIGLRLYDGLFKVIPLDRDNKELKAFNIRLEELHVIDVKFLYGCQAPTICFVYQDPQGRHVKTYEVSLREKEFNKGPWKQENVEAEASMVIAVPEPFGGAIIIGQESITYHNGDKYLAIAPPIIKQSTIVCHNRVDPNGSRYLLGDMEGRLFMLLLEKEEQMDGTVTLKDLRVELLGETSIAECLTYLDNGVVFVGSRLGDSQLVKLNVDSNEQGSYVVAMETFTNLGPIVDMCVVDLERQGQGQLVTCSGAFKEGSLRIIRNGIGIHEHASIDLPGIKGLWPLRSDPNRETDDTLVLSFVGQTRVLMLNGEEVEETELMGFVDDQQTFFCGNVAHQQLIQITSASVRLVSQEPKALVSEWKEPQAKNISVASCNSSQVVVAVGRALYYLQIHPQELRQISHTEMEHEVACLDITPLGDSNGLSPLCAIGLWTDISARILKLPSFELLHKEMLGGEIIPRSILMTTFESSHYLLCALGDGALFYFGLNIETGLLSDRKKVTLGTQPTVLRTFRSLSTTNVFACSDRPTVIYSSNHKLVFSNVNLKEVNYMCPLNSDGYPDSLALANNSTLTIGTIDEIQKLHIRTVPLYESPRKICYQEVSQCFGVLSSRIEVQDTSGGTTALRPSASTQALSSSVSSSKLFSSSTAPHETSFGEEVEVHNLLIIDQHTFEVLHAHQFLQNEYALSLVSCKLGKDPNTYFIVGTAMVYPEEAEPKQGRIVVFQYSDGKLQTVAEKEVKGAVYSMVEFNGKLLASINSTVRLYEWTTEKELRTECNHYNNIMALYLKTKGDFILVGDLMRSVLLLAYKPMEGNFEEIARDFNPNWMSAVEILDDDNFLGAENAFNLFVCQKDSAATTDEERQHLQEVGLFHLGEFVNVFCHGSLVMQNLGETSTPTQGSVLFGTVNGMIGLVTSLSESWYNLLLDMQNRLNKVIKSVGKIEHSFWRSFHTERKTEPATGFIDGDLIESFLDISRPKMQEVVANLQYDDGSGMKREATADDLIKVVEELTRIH
Outline: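 Live cells expressing NanoLuc-CRBN with tracer and compound were incubated 2 h, then given Nano-Glo substrate plus extracellular NanoLuc inhibitor for 3 min at room temperature.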

BTK-NanoLuc fusion = molecular target: T2, BTK-NanoLuc fusion (Homo sapiens, UniProt Q06187); assay: NanoBRET BTK in-cell target engagement assay; type: cell-based; details: for K′P,D (relative intracellular accumulation coefficient): Kd (BTK)/IC50,TE (BTK)
T2 construct: host or cells: HEK 293T/17
T2 sequence (Q06187 whole entry, the tested form may be a part): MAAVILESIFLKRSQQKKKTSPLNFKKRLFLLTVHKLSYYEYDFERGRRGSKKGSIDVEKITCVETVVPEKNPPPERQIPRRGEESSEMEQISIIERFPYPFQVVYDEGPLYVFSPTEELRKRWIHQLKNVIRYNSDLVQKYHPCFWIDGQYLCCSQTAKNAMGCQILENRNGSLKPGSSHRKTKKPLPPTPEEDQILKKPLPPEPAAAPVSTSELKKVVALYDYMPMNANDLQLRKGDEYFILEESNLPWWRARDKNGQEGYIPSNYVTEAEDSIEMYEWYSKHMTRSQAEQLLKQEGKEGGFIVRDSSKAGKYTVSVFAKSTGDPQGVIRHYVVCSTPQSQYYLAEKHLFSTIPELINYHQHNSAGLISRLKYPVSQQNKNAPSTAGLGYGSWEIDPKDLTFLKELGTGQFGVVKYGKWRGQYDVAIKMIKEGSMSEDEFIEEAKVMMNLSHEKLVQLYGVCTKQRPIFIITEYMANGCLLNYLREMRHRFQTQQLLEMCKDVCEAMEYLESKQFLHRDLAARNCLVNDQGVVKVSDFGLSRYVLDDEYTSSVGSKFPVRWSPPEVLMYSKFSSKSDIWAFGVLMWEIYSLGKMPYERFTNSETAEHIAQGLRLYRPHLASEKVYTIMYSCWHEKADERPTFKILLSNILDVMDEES
Outline: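 Tracer-displacement IC50 derived from background-corrected BRET ratio (450 nm donor, 610 nm acceptor) in live HEK293/T17 cells transfected with BTK-NanoLuc. Cells were exposed for 2 h at 37 °C to 1.0 µM tracer plus 5-fold serial dilutions of compound from 10 µM.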

BTK = BTK (Homo sapiens, UniProt Q06187); assay: In vitro BTK kinase assay (PhosphoSens); type: biochemical; set-up: purchased SignalChem B10-10H-10; details: for pIC50: AssayQuant BTK assay kit, 2.5 nM BTK, 1 mM ATP, duplicates, read-out: BTK inhibition IC50; for activity at 2.56 pM / activity at 12.8 pM / activity at 64 pM / activity at 0.00032 µM / activity at 0.0016 µM / activity at 0.008 µM / activity at 0.04 µM / activity at 0.2 µM / activity at 1 µM: Supplementary Figure 5, replicates, read-out: Inhibition(%); for activity at 2.56 pM: drug concentration 2.56 pM; for activity at 12.8 pM: drug concentration 12.8 pM; for activity at 64 pM: drug concentration 64 pM; for activity at 0.00032 µM: drug concentration 320 pM; for activity at 0.0016 µM: drug concentration 1600 pM; for activity at 0.008 µM: drug concentration 8000 pM; for activity at 0.04 µM: drug concentration 40000 pM; for activity at 0.2 µM: drug concentration 200000 pM; for activity at 1 µM: drug concentration 1000000 pM
BTK, sequence (Q06187 whole entry): as the sequence (Q06187 whole entry, the tested form may be a part) above
Protocol: BTK kinase activity inhibition IC50 was measured by PhosphoSens® Kinase Assay Kit (Assay Quant Technologies Inc., Cat.# CSKS-AQT0101K). […] Active recombinant BTK was purchased from SignalChem (Cat.# B10-10H-10). All the drugs (3 warhead control and 4 PROTACs) were dissolved in DMSO (10 mM). […] To calculate the IC50, subtract the background fluorescence determined with the “no kinase” control for each time point from the total signal to obtain corrected Relative Fluorescence Units (RFU) values. Plot the corrected RFU vs. Time for each inhibitor concentration and determine the initial reaction rates (slope of the linear portion) for each progress curve for each inhibitor concentration. Then plot velocity (RFU corrected/minute) vs [inhibitor] and determine the IC50 using a 4-parameter logistic fit.

Rec-1 = assay: IC50 in MCL cell lines (Supplementary Table 2), Rec-1; details: for pIC50: Rec-1, triplicates; for Cell Viability (%): Rec-1 cells, replicate wells

SMILES	K′P,D (relative intracellular accumulation coefficient) (BTK-NanoLuc fusion)	pIC50 (BTK)	activity at 2.56 pM (BTK) [%]	activity at 12.8 pM (BTK) [%]	activity at 64 pM (BTK) [%]	activity at 0.00032 µM (BTK) [%]	activity at 0.0016 µM (BTK) [%]	activity at 0.008 µM (BTK) [%]	activity at 0.04 µM (BTK) [%]	activity at 0.2 µM (BTK) [%]	activity at 1 µM (BTK) [%]	pIC50 (Rec-1)	Cell Viability (%) (Rec-1; 1.25E-06 M)	Cell Viability (%) (Rec-1; 1.56E-07 M)	Cell Viability (%) (Rec-1; 2.50E-06 M)	Cell Viability (%) (Rec-1; 3.13E-07 M)	Cell Viability (%) (Rec-1; 5.00E-06 M)	Cell Viability (%) (Rec-1; 6.25E-07 M)	Cell Viability (%) (Rec-1; 7.81E-08 M)	other results
CN(CCCNC(=O)CNc1cccc2c1C(=O)N(C1CCC(=O)NC1=O)C2=O)CCCC(=O)N1CCCC(n2nc(-c3ccc(Oc4ccccc4)cc3)c3c(N)ncnc32)C1 (stereo not drawn) [RNC-1]	3.7 × 10^−3	7.67	87.5	93	88	96.2	83.6	71.7	32.2	14	4.94	–	–	–	–	–	–	–	–	recovery at 16 h, 10 μM ([1]; Recovery%): 30%; Papp at 16 h, 10 μM ([1]; pH 7.4): < 0.00209 ×10⁻⁶ cm/s; NanoBRET(%) (NanoLuc-CRBN fusion; 1.60E-08 M, triplicates): 102.085% and 102.001%; NanoBRET(%) (NanoLuc-CRBN fusion; 2.00E-06 M, triplicates): 49.8083% and 51.4483% and 59.2693%; NanoBRET(%) (NanoLuc-CRBN fusion; 3.20E-09 M, triplicates): 100.05% and 108.808% and 104.469%; NanoBRET(%) (NanoLuc-CRBN fusion; 4.00E-07 M, triplicates): 67.9857% and 66.2855% and 79.0983%; NanoBRET(%) (NanoLuc-CRBN fusion; 8.00E-08 M, triplicates): 74.8615% and 82.1247%; pIC50 (NanoLuc-CRBN fusion; HEK-293 cells, CRBN tracer 0.5 µM, triplicates, read-out: CRBN target engagement IC50,TE): 5.77; K′P,D (relative intracellular accumulation coefficient) (NanoLuc-CRBN fusion; Kd (CRBN)/IC50,TE (CRBN)): 1.1; intracellular accumulation of RC-1 relative to the compound (NanoLuc-CRBN fusion; from K′P,D values, CRBN (Table 2)): 16 fold; CRBN target engagement IC50 relative to that of RC-1 (NanoLuc-CRBN fusion; ratio compound/RC-1): 7 fold; NanoBRET(%) (BTK-NanoLuc fusion; Figure 3c, 1.00E-05 M, triplicates): 19.811% and 15.5465% and 15.3581%; NanoBRET(%) (BTK-NanoLuc fusion; Figure 3c, 1.60E-08 M, triplicates): 97.712% and 94.5586% and 94.4887%; NanoBRET(%) (BTK-NanoLuc fusion; Figure 3c, 2.00E-06 M, triplicates): 33.1128% and 33.4469% and 31.5012%; NanoBRET(%) (BTK-NanoLuc fusion; Figure 3c, 3.20E-09 M, triplicates): 87.6339% and 98.6398% and 114.053%; NanoBRET(%) (BTK-NanoLuc fusion; Figure 3c, 4.00E-07 M, triplicates): 69.4314% and 86.9635% and 77.822%; NanoBRET(%) (BTK-NanoLuc fusion; Figure 3c, 8.00E-08 M, triplicates): 100.734% and 107.362% and 104.968%; pIC50 (BTK-NanoLuc fusion; HEK-293 cells, BTK tracer 1.0 µM, Table 1 / Fig. 3c, triplicates, read-out: BTK TE IC50,TE): 5.90; intracellular accumulation of RC-1 relative to the compound (BTK-NanoLuc fusion; from K′P,D values, BTK (Table 1)): 40 folds; diminished BTK inhibitory activity compared with corresponding warhead control (BTK; ratio of IC50 values): < 3 fold
CC(C)(C)C=C(C#N)C(=O)N1CCCC(n2nc(-c3ccc(Oc4ccccc4)cc3)c3c(N)ncnc32)C1 (stereo not drawn) [RC-Ctrl]	1.5 × 10^−1	8.66	108	105	109	96.8	64.1	25.5	4.68	1.89	2.91	< 5.30	84.1542% and 83.3085% and 82.8961%	92.1928% and 91.3082% and 92.4737%	79.0591% and 78.7184% and 77.0987%	90.2055% and 91.6728% and 91.1737%	67.2403% and 66.8996% and 66.3946%	86.0757% and 86.1055% and 87.7342%	88.6576% and 86.9542% and 93.923%	NanoBRET(%) (BTK-NanoLuc fusion; Figure 3d, 1.00E-05 M, triplicates): 3.378% and 4.061% and 7.763%; NanoBRET(%) (BTK-NanoLuc fusion; Figure 3d, 1.60E-08 M, triplicates): 68.6994% and 58.5265% and 79.8426%; NanoBRET(%) (BTK-NanoLuc fusion; Figure 3d, 2.00E-06 M, triplicates): 7.973% and 4.415% and 10.8959%; NanoBRET(%) (BTK-NanoLuc fusion; Figure 3d, 3.20E-09 M, triplicates): 72.0977% and 81.5236% and 73.9704%; NanoBRET(%) (BTK-NanoLuc fusion; Figure 3d, 8.00E-08 M, triplicates): 48.5638% and 40.5056% and 47.7559%; pIC50 (BTK-NanoLuc fusion; experiment of Fig. 3d, read-out: BTK target engagement IC50): 7.33; reduction of BTK inhibition activity compared with IRC-Ctrl (BTK; ratio of IC50 values): 7 folds
CN1C(=O)CCC(N2C(=O)c3cccc(NCC(=O)NCCCN(C)C(C)(C)C=C(C#N)C(=O)N4CCCC(n5nc(-c6ccc(Oc7ccccc7)cc6)c6c(N)ncnc65)C4)c3C2=O)C1=O (stereo not drawn) [RC-1-Me]	–	8.17	108	101	109	106	88.3	48.8	10.5	3.98	1.27	< 5.30	88.9713% and 84.187% and 87.0708%	102.885% and 100.999% and 103.498%	85.2061% and 81.3451% and 80.2365%	100.04% and 97.7301% and 97.0129%	70.5812% and 67.1387% and 67.0221%	91.8342% and 92.6769% and 91.2574%	100.946% and 100.662% and 102.733%	–
